Source: the NIST ThermoML archive (doi:10.1021/acs.jced.8b00591)

Test: xn = mol fraction of the nth substance listed
Details: 101.3 kPa, Liquid; for viscosity: Falling or rolling sphere viscometry; for mass density: Vibrating tube method

CCn1cc[n+](C)c1.O=S(=O)([N-]S(=O)(=O)C(F)(F)F)C(F)(F)F + COC(=O)OC
Details | mass density [kg/m3] | viscosity [mPa·s]
288.15 K, x1 = 0.0989 | 1199.15 | 1.579
288.15 K, x1 = 0.1983 | 1282.85 | 2.913
288.15 K, x1 = 0.2973 | 1342.57 | 4.862
288.15 K, x1 = 0.3958 | 1387.69 | 7.561
288.15 K, x1 = 0.496 | 1423.97 | 11.21
288.15 K, x1 = 0.5954 | 1452.55 | 16.89
288.15 K, x1 = 0.6967 | 1476.87 | 22.56
288.15 K, x1 = 0.7982 | 1497.52 | 30.07
288.15 K, x1 = 0.9004 | 1514.5 | 38.55
288.15 K, x1 = 1 | 1528.55 | 49.41
293.15 K, x1 = 0.0989 | 1193.1 | 1.451
293.15 K, x1 = 0.1983 | 1277.11 | 2.637
293.15 K, x1 = 0.2973 | 1337.02 | 4.332
293.15 K, x1 = 0.3958 | 1382.28 | 6.635
293.15 K, x1 = 0.496 | 1418.62 | 9.698
293.15 K, x1 = 0.5954 | 1447.28 | 14.58
293.15 K, x1 = 0.6967 | 1471.62 | 19.02
293.15 K, x1 = 0.7982 | 1492.37 | 25.12
293.15 K, x1 = 0.9004 | 1509.39 | 31.87
293.15 K, x1 = 1 | 1523.47 | 40.36
298.15 K, x1 = 0.0989 | 1187.03 | 1.348
298.15 K, x1 = 0.1983 | 1271.35 | 2.4
298.15 K, x1 = 0.2973 | 1331.47 | 3.884
298.15 K, x1 = 0.3958 | 1376.85 | 5.878
298.15 K, x1 = 0.496 | 1413.28 | 8.484
298.15 K, x1 = 0.5954 | 1442.02 | 12.53
298.15 K, x1 = 0.6967 | 1466.42 | 16.66
298.15 K, x1 = 0.7982 | 1487.23 | 21.25
298.15 K, x1 = 0.9004 | 1504.28 | 26.71
298.15 K, x1 = 1 | 1518.39 | 33.52
303.15 K, x1 = 0.0989 | 1180.95 | 1.25
303.15 K, x1 = 0.1983 | 1265.59 | 2.195
303.15 K, x1 = 0.2973 | 1325.91 | 3.507
303.15 K, x1 = 0.3958 | 1371.44 | 5.241
303.15 K, x1 = 0.496 | 1407.96 | 7.472
303.15 K, x1 = 0.5954 | 1436.78 | 10.8
303.15 K, x1 = 0.6967 | 1461.24 | 14.52
303.15 K, x1 = 0.7982 | 1482.09 | 18.37
303.15 K, x1 = 0.9004 | 1499.19 | 22.66
303.15 K, x1 = 1 | 1513.34 | 28.35
308.15 K, x1 = 0.0989 | 1174.86 | 1.162
308.15 K, x1 = 0.1983 | 1259.83 | 2.019
308.15 K, x1 = 0.2973 | 1320.35 | 3.177
308.15 K, x1 = 0.3958 | 1366.03 | 4.706
308.15 K, x1 = 0.496 | 1402.66 | 6.64
308.15 K, x1 = 0.5954 | 1431.55 | 9.382
308.15 K, x1 = 0.6967 | 1456.07 | 12.62
308.15 K, x1 = 0.7982 | 1476.98 | 16.22
308.15 K, x1 = 0.9004 | 1494.12 | 19.42
308.15 K, x1 = 1 | 1508.3 | 24.15
313.15 K, x1 = 0.0989 | 1168.75 | 1.086
313.15 K, x1 = 0.1983 | 1254.07 | 1.865
313.15 K, x1 = 0.2973 | 1314.81 | 2.904
313.15 K, x1 = 0.3958 | 1360.63 | 4.247
313.15 K, x1 = 0.496 | 1397.36 | 5.946
313.15 K, x1 = 0.5954 | 1426.34 | 8.189
313.15 K, x1 = 0.6967 | 1450.93 | 10.96
313.15 K, x1 = 0.7982 | 1471.88 | 14.22
313.15 K, x1 = 0.9004 | 1489.06 | 17.21
313.15 K, x1 = 1 | 1503.28 | 20.76
318.15 K, x1 = 0.0989 | 1162.63 | 1.016
318.15 K, x1 = 0.1983 | 1248.3 | 1.729
318.15 K, x1 = 0.2973 | 1309.26 | 2.661
318.15 K, x1 = 0.3958 | 1355.23 | 3.831
318.15 K, x1 = 0.496 | 1392.08 | 5.358
318.15 K, x1 = 0.5954 | 1421.14 | 7.249
318.15 K, x1 = 0.6967 | 1445.79 | 9.578
318.15 K, x1 = 0.7982 | 1466.8 | 12.43
318.15 K, x1 = 0.9004 | 1484.02 | 15.16
318.15 K, x1 = 1 | 1498.27 | 17.9
323.15 K, x1 = 0.0989 | 1156.5 | 0.954
323.15 K, x1 = 0.1983 | 1242.54 | 1.608
323.15 K, x1 = 0.2973 | 1303.72 | 2.452
323.15 K, x1 = 0.3958 | 1349.85 | 3.512
323.15 K, x1 = 0.496 | 1386.81 | 4.857
323.15 K, x1 = 0.5954 | 1415.92 | 6.332
323.15 K, x1 = 0.6967 | 1440.67 | 8.381
323.15 K, x1 = 0.7982 | 1461.74 | 10.9
323.15 K, x1 = 0.9004 | 1479 | 13.29
323.15 K, x1 = 1 | 1493.28 | 15.93
328.15 K, x1 = 0.0989 | 1150.34 | 0.898
328.15 K, x1 = 0.1983 | 1236.76 | 1.501
328.15 K, x1 = 0.2973 | 1298.19 | 2.268
328.15 K, x1 = 0.3958 | 1344.47 | 3.224
328.15 K, x1 = 0.496 | 1381.55 | 4.421
328.15 K, x1 = 0.5954 | 1410.75 | 5.588
328.15 K, x1 = 0.6967 | 1435.57 | 7.456
328.15 K, x1 = 0.7982 | 1456.69 | 9.61
328.15 K, x1 = 0.9004 | 1474 | 11.68
328.15 K, x1 = 1 | 1488.31 | 14.26
